The subject of one assay is HCT116 cells. The assay is described as follows: Cell cycle analysis, propidium iodide FACS (DNA content). It counts as cell-based. Conditions: for percentage of cells in the G0/G1 phase (G1) / percentage of cells in the G2/M phase / percentage of cells in the S phase: HCT116, 24 hrs. The protocol: Monasterol and pentamidine in individual experiments: • HCT116 cells were treated with the given concentrations of the compounds for 24 hrs, processed for the propidium iodide analysis with a BD-FACS scan in order to determine the DNA content of the treated cell populations. The percentage of cells in the G0/G1 phase (unreplicated DNA), S phase (DNA replication phase) and G2/M phase (duplicated DNA before mitosis) is shown. 10,000 events were counted for each concentration. Striking changes in the G2/M enrichment have been highlighted.

Assay [1] relates to colon carcinoma cell line HCT116. The assay is described as follows: Assay II: combination cell proliferation test, Crystal Violet staining. It is filed as cell-based. Conditions: for -fold inhibition of proliferation / OD550 nm background corrected / % of control: 48 hrs. Here is the method: The combination of the antiprotozoic pentamidine and the inhibitors of kinesin ATPase Eg5/KSP results in increased inhibitory effects in cell proliferation tests with the colon carcinoma cell line HCT116.
10^3 to 10^4 cells of a defined cell line (HCT116, Colo 205, MDA-MB 231, etc.) are sown into each well of a 96-well microtitre plate and cultivated overnight under standard conditions. For the substances of the combination to be tested, 10-50 mM stock solutions in DMSO were prepared. Dilution series (generally 3-fold dilution steps) of the individual substances were combined with one another in the form of a pipetting scheme (see scheme below), while maintaining a DMSO final concentration of 0.5% (v/v). Next morning, the substance mixtures were added to the cells, which were incubated under culture conditions for a further 48 hours. At the end of the cultivation, Crystal Violet staining of the cells was carried out. After extraction of the Crystal Violet from the fixed cells, the absorption at 550 nm was measured spectrophotometrically. It can be used as a quantitative measure of the adherent cells present.
HCT116 cells were incubated overnight at 37° C. in 96-well plates at a density of 2500 or 5000 cells/well. On the following day, a concentration matrix of pentamidine and the compounds indicated was added, and the cells were incubated for a further 48 hrs. The cells were then stained with Crystal Violet, and the absorption was measured after extraction of the dye. The absorption value reflects the number of cells in the well.
Results: Upper matrix: OD550 nm background corrected Central matrix: % of control (the 100% value stands for vehicle-treated cells minus background signal) Lower field: -fold inhibition values (i.e. the 100%/x % value stands for a-fold inhibition of proliferation).

The mark [2] stands for this setting: monastrol 6.125 μM, pentamidine 0 μM.
[3] abbreviates: monastrol 12.5 μM, pentamidine 0 μM.
Setting [4] is: monastrol 25 μM, pentamidine 0 μM.
Where [5] appears, read: monastrol 50 μM, pentamidine 0 μM.

Values joined by “and” are separate entries in the source; they are usually repeats but may differ in a detail not shown here. Equal entries are not always repeated.

Consider `CC(C)(C)c1ccc2c(c1)[C@H]1OCCC[C@H]1[C@H](c1ccsc1)N2` [Example I12], for which the “percentage of cells in the G0/G1 phase (G1)” value (“percentage of cells … (G1)” for short) is on record as 36% in the assay with HCT116 cells (0.0032 μM); 36% with HCT116 cells (0.016 μM); 35% in the assay with HCT116 cells (0.08 μM); 7% in the assay with HCT116 cells (0.4 μM); 0% with HCT116 cells (2 μM). Further, the “percentage of cells in the G2/M phase” value in the assay on HCT116 cells (0.0032 μM) is given as 21%; in the assay on HCT116 cells (0.016 μM) it was 21%; with HCT116 cells (0.08 μM) it was 23%; with HCT116 cells (0.4 μM) it was 86%; in the assay on HCT116 cells (2 μM), 85%. Also, the “percentage of cells in the S phase” value in the assay on HCT116 cells (0.0032 μM) was 44%; in the assay on HCT116 cells (0.016 μM), 43%; in the assay with HCT116 cells (0.08 μM) it was 42%; in the assay on HCT116 cells (0.4 μM), 7%; with HCT116 cells (2 μM) it was 15%. Further, the activity at 0.025 µM in assay [1] (Homo sapiens, HCT-116, 48 h, I12 0.025 μM, pentamidine 0 μM, read-out: % of control) is 91%. Further, the activity at 0.05 µM in assay [1] (Homo sapiens, HCT-116, 48 h, I12 0.05 μM, pentamidine 0 μM, read-out: % of control) stood at 98%. The activity at 0.1 µM in assay [1] (Homo sapiens, HCT-116, 48 h, I12 0.1 μM, pentamidine 0 μM, read-out: % of control) was 90%. The activity at 0.2 µM in assay [1] (Homo sapiens, HCT-116, 48 h, I12 0.2 μM, pentamidine 0 μM, read-out: % of control) turned out to be 90%. Moreover, the activity at 0.4 µM in assay [1] (Homo sapiens, HCT-116, 48 h, I12 0.4 μM, pentamidine 0 μM, read-out: % of control) is 31%. In addition, the “-fold inhibition of proliferation” value in assay [1] (I12 0.025 μM, pentamidine 0 μM) is on record as 1 fold; in assay [1] (I12 0.05 μM, pentamidine 0 μM) it was 1 fold; in assay [1] (I12 0.1 μM, pentamidine 0 μM), 1 fold; in assay [1] (I12 0.2 μM, pentamidine 0 μM), 1 fold; in assay [1] (I12 0.4 μM, pentamidine 0 μM) it was 3 fold. The “OD550 nm background corrected” value in assay [1] (I12 0.025 μM, pentamidine 0 μM) came to 1.1; in assay [1] (I12 0.05 μM, pentamidine 0 μM), 1.2; in assay [1] (I12 0.1 μM, pentamidine 0 μM), 1.1; in assay [1] (I12 0.2 μM, pentamidine 0 μM), 1.1; in assay [1] (I12 0.4 μM, pentamidine 0 μM), 0.4.
On to `CCOC(=O)C1=C(C)NC(=S)NC1c1cccc(O)c1` (stereo not drawn) [Monastrol], for which the “percentage of cells … (G1)” value with HCT116 cells (0.08 μM) is listed as 35%; in the assay with HCT116 cells (0.4 μM) it was 34%; with HCT116 cells (2 μM), 33%; in the assay on HCT116 cells (10 μM) it was 34%; in the assay with HCT116 cells (50 μM), 14%. Besides, the “percentage of cells in the G2/M phase” value in the assay with HCT116 cells (0.08 μM) is reported as 25%; in the assay on HCT116 cells (0.4 μM), 28%; in the assay on HCT116 cells (2 μM), 25%; in the assay with HCT116 cells (10 μM), 27%; in the assay with HCT116 cells (50 μM), 52%. Further, the “percentage of cells in the S phase” value is reported as 39% in the assay with HCT116 cells (0.08 μM); 38% in the assay with HCT116 cells (0.4 μM); 42% in the assay with HCT116 cells (2 μM); 39% with HCT116 cells (10 μM); 33% in the assay with HCT116 cells (50 μM). For the same compound, the activity at 6.125 µM in assay [1] (Homo sapiens, HCT-116, 48 h, monastrol 6.125 μM, pentamidine 0 μM, read-out: % of control) was 84%. Besides, in assay [1] (Homo sapiens, HCT-116, 48 h, monastrol 12.5 μM, pentamidine 0 μM, read-out: % of control), the activity at 12.5 µM is 62%. Moreover, the activity at 25 µM in assay [1] (Homo sapiens, HCT-116, 48 h, monastrol 25 μM, pentamidine 0 μM, read-out: % of control) worked out at 53%. Further, the activity at 50 µM in assay [1] (Homo sapiens, HCT-116, 48 h, monastrol 50 μM, pentamidine 0 μM, read-out: % of control) was 17%. Moreover, the “-fold inhibition of proliferation” value in assay [1] (setting [2]) was 1 fold; in assay [1] (setting [3]) it was 2 fold; in assay [1] (setting [4]), 2 fold; in assay [1] (setting [5]), 6 fold. For the same compound, the “OD550 nm background corrected” value in assay [1] (setting [2]) is given as 0.68; in assay [1] (setting [3]) it was 0.51; in assay [1] (setting [4]) it was 0.43; in assay [1] (setting [5]), 0.14.
Regarding `N=C(N)c1ccc(OCCCCCOc2ccc(C(=N)N)cc2)cc1.O=S(=O)(O)CCO.O=S(=O)(O)CCO` [Pentamidine Isothionate], the “percentage of cells … (G1)” value in the assay on HCT116 cells (0.016 μM) is 36%; in the assay with HCT116 cells (0.08 μM) it was 35%; in the assay on HCT116 cells (0.4 μM), 33%; in the assay with HCT116 cells (2 μM), 32%; in the assay with HCT116 cells (10 μM) it was 32%. The “percentage of cells in the G2/M phase” value worked out at 22% in the assay with HCT116 cells (0.016 μM); 21% in the assay with HCT116 cells (0.08 μM); 22% with HCT116 cells (0.4 μM); 24% with HCT116 cells (2 μM); 32% in the assay with HCT116 cells (10 μM). For the same compound, the “percentage of cells in the S phase” value with HCT116 cells (0.016 μM) worked out at 42%; in the assay on HCT116 cells (0.08 μM) it was 44%; in the assay with HCT116 cells (0.4 μM) it was 45%; in the assay with HCT116 cells (2 μM) it was 44%; in the assay with HCT116 cells (10 μM), 32%.
Regarding `N=C(N)c1ccc(OCCCCCOc2ccc(C(=N)N)cc2)cc1` [Pentamidine, pentamidine], the “effect on the cell cycle (in words)” value with HCT116 cells is given as “maintain cells in the G2/M cell cycle”. In addition, in assay [1] (Homo sapiens, HCT-116, 48 h, pentamidine 4 μM alone, read-out: % of control), the activity at 4 µM came out at 85%. Also, the activity at 8 µM in assay [1] (Homo sapiens, HCT-116, 48 h, pentamidine 8 μM alone, read-out: % of control) came out at 50%. In assay [1] (Homo sapiens, HCT-116, 48 h, pentamidine 16 μM alone, read-out: % of control), the activity at 16 µM was 30%. Also, in assay [1] (Homo sapiens, HCT-116, 48 h, pentamidine 32 μM alone, read-out: % of control), the activity at 32 µM stood at 20%. In addition, the “% of control” value in assay [1] (pentamidine 2 μM alone) was 86% and 124%; in assay [1] (pentamidine 4 μM alone), 101%; in assay [1] (pentamidine 8 μM alone), 55%; in assay [1] (pentamidine 16 μM alone), 18%. Further, the “-fold inhibition of proliferation” value in assay [1] (pentamidine 2 μM alone) was 1 fold; in assay [1] (pentamidine 4 μM alone) it was 1 fold; in assay [1] (pentamidine 8 μM alone) it was 2 fold; in assay [1] (pentamidine 16 μM alone), 3 fold and 6 fold; in assay [1] (pentamidine 32 μM alone) it was 5 fold. Moreover, the “OD550 nm background corrected” value in assay [1] (pentamidine 2 μM alone) is 1.0 and 1.01; in assay [1] (pentamidine 4 μM alone), 1.0 and 0.82; in assay [1] (pentamidine 8 μM alone) it was 0.6 and 0.45; in assay [1] (pentamidine 32 μM alone), 0.2.
